Measurements published in US20100137221A1, “PEPTIDES THAT INTERACT WITH TOPOISOMERASE I AND METHODS THEREOF” (UNIVERSITY UTAH RESEARCH FOUNDATION, priority 2007, published 2010).

Columns and labels:
[1] = test system: HCT 116 tumor; assay: In vivo HCT 116 tumor xenograft in nude mice; design: species or system nude (BalbC nu/nu) mice; conditions: all doses tested, i.p.
Description: In vivo mouse studies: HCT 116 cells (4×10^6) were injected into the flanks of nude (BalbC nu/nu) mice for both experiments. The animals were randomized when the tumors were staged at 50 mm^3. In the first experiment, control animals were administered 0.1 ml of vehicle (α-MEM containing 0.05% methylcarboxycellulose and 2% DMSO) i.p., in the absence of peptide (PBS, control #1) or presence of T1BP2-T (control #2, 150 μg in 0.1 ml PBS) or T1BP3-T (control #3, 150 μg in 0.1 ml PBS) injected s.c. at site of tumor. […] Animals treated with 9AC were divided into 4 groups, each containing 5 mice. T1BP-T and PBS subcutaneous injections were administered as described above at the site of the tumor, 30 minutes after the i.p. injection of 9AC in a 50 μl volume. 9AC was dissolved in vehicle. Groups consisted of animals treated with a total of 4 mg/kg 9AC (low dose) in the absence or presence of T1BP2-T or a total of 8 mg/kg 9AC (high dose). Animals were treated with 1 or 2 mg/kg doses, twice a week over 2 weeks. In the second experiment, 18 mice were evaluated in three groups of six animals. Control animals were injected i.p. with 0.1 ml of vehicle (α-MEM containing 0.05% methylcarboxycellulose and 2% DMSO). […]

[2] = molecular target: T1, top 1-DNA binding (Homo sapiens, UniProt P11387); assay: Biosensor analysis of the effect of peptide on top 1-DNA binding; conditions: 50 nM CPP4; top 1 5, 10 and 20 nM; biotinylated linear DNA
T1 construct: made in house; host or cells: Sf9 insect cells (baculovirus) or human placenta
T1 sequence (P11387 1-765): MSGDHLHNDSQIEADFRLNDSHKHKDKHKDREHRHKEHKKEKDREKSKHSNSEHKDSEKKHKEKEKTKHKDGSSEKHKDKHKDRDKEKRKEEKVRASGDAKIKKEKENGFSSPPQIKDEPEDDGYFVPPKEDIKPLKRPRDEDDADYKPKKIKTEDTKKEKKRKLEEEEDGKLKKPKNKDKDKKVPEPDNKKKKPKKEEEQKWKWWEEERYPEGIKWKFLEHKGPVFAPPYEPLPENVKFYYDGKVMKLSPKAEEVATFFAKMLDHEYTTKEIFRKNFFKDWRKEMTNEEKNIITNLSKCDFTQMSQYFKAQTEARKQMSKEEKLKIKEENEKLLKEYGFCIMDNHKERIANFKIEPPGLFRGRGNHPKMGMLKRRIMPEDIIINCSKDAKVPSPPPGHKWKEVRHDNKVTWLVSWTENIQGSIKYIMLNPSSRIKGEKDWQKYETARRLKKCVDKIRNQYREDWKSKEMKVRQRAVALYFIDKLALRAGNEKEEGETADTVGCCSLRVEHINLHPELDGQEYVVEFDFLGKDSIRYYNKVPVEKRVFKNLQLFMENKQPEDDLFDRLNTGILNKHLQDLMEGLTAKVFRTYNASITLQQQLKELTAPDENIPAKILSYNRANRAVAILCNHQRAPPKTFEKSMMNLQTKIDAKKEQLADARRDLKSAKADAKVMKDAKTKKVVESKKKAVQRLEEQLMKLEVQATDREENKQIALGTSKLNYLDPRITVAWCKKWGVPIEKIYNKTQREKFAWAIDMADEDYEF
Description: Biotinylated linear DNA was attached to the flow cell via straptavidin. Top 1 (5, 10 and 20 nM) was applied.

| top 1 dissociation from DNA [2] | Compound | anti-tumor effect of 9AC alone [1] |
| --- | --- | --- |
|  | CC[C@@]1(O)C(=O)OCc2c1cc1n(c2=O)Cc2cc3c(N)cccc3nc2-1 [9AC, 9-amino camptothecin] | significant anti-tumor effects |
| dissociation is slowed | DRVPLVHVIFNSFGY [CPP4] |  |
